Values quoted from earlier work, collected in article PMC10215804, “Exploring Alternative Pathways to Target Bacterial Type II Topoisomerases Using NBTI Antibacterials: Beyond Halogen-Bonding Interactions” (Antibiotics, 2023).
In brackets after ≈: the same amount, converted by molar mass.

Experiments:
[1] = tested on: E. coli (ATCC 25922); details: cited from earlier work
[2] = tested on: MRSA(QA-12.1); design: method as in PMID 35970069; details: cited from earlier work
[3] = target: T1, S. aureus topoIV (Staphylococcus aureus, UniProt P0C1U9); details: relaxation inhibition; cited from earlier work
T1 construct: purchased Inspiralis (Norwich, UK)

[4] = target: T2, E. coli DNA gyrase (Escherichia coli, UniProt P0AES4); details: supercoiling inhibition; cited from earlier work
T2 construct: purchased Inspiralis (Norwich, UK)

[5] = tested on: E. coli ESBL QA-11.3; design: method as in PMID 35970069; details: cited from earlier work
[6] = target: T3, S. aureus DNA gyrase (Staphylococcus aureus, UniProt P20831); details: supercoiling inhibition; cited from earlier work
T3 construct: purchased Inspiralis (Norwich, UK)

[7] = tested on: MRSA (QA-11.2); design: method as in PMID 35970069; details: cited from earlier work
[8] = tested on: K. pneumoniae; design: method as in PMID 35970069; details: cited from earlier work
[9] = target: T4, human topoisomerase IIα (Homo sapiens, UniProt P11388); details: residual activity at 100 µM compound; cited from earlier work
T4 construct: purchased Inspiralis (Norwich, UK)

[10] = tested on: VRE; details: cited from earlier work
[11] = tested on: E. coli D22; details: lpxC mutation; cited from earlier work
[12] = tested on: MRSA (QA-11.7); details: cited from earlier work
[13] = tested on: E. faecalis RDK 057; details: cited from earlier work
[14] = tested on: E. coli N43 (CGSC# 5583); details: AcrA knockout; cited from earlier work
[15] = tested on: S. aureus (ATCC 29213); details: cited from earlier work
[16] = tested on: A. baumannii; design: method as in PMID 35970069; details: cited from earlier work
[17] = target: T5, E. coli topoIV (Escherichia coli, UniProt P0AFI2); details: relaxation inhibition; cited from earlier work
T5 construct: purchased Inspiralis (Norwich, UK)

[18] = tested on: P. aeruginosa RDK 184; details: cited from earlier work

T4 sequence (P11388 whole entry): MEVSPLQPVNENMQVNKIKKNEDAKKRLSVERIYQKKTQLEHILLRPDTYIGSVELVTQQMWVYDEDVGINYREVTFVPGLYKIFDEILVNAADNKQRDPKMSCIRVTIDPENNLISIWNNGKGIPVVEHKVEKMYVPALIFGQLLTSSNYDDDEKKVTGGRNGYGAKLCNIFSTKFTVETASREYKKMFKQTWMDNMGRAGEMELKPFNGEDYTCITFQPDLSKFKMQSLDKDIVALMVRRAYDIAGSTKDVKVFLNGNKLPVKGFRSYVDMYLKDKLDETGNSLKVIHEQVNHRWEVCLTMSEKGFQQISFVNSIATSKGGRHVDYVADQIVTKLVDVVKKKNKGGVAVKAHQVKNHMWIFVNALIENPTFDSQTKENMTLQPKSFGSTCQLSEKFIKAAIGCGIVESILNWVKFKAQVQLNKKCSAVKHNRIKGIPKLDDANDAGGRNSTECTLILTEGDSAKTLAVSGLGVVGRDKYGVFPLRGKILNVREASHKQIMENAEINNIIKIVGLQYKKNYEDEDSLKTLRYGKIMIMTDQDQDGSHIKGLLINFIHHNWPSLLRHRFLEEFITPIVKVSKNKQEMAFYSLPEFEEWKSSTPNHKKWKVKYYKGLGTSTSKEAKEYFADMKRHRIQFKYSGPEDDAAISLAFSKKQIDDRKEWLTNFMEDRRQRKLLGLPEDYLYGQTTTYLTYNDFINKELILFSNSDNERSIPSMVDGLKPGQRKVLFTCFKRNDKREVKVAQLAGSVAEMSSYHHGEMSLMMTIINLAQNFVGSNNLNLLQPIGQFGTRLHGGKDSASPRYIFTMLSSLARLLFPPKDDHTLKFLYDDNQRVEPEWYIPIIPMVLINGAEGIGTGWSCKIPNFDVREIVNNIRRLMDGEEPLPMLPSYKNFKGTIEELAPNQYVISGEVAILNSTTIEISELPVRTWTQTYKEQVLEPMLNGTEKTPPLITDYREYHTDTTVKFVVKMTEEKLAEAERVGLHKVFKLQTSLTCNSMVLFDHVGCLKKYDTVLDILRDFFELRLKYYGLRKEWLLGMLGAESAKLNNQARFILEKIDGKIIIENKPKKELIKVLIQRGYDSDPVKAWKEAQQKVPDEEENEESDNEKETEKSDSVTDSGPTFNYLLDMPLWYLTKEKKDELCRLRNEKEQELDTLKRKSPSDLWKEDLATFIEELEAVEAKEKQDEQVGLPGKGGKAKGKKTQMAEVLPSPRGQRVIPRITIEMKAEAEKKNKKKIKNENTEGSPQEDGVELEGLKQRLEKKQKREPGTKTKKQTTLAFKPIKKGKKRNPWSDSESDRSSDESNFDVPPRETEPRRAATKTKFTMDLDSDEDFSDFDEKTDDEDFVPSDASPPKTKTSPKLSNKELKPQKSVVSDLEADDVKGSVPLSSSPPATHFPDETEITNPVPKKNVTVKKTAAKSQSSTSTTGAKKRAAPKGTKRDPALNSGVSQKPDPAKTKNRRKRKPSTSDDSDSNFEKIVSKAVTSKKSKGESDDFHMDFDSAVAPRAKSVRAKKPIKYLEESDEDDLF
T2 sequence (P0AES4 whole entry): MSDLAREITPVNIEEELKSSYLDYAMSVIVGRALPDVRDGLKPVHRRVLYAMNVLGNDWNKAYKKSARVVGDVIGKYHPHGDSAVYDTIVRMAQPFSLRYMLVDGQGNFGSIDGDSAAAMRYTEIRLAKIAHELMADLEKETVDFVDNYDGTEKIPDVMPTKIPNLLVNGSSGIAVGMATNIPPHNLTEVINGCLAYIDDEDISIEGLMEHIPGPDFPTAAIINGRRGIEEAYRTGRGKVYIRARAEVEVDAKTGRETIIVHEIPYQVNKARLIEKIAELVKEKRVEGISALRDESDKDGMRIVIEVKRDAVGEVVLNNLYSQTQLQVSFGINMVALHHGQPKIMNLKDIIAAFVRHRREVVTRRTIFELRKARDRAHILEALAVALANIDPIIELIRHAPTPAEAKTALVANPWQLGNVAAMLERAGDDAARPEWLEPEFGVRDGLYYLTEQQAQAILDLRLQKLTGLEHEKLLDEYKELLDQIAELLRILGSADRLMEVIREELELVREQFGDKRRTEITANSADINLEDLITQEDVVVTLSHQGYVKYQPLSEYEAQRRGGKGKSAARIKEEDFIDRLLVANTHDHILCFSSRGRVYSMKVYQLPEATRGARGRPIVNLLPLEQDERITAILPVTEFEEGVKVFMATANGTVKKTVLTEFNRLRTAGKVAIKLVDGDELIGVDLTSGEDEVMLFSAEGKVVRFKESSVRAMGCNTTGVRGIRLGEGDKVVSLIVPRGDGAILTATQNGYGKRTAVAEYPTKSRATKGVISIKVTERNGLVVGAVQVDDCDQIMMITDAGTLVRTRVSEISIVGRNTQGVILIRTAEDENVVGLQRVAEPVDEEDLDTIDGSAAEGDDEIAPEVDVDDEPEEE
T5 sequence (P20083 whole entry): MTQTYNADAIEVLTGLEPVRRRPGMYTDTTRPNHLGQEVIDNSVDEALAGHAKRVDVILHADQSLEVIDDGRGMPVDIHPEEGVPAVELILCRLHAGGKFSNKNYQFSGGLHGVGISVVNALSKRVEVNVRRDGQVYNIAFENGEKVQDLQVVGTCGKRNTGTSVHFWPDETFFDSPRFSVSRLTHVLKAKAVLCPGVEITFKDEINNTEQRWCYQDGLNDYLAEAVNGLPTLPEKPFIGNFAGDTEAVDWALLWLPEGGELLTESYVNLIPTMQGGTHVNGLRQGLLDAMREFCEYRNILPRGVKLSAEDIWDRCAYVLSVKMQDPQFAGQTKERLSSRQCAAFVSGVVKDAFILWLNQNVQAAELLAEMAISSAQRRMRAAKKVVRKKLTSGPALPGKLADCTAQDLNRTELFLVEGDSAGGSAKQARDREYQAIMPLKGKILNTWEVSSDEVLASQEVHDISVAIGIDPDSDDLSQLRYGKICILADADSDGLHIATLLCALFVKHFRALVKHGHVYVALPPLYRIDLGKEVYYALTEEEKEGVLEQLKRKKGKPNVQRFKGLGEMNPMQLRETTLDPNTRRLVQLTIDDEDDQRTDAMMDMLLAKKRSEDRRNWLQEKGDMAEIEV
T5 sequence (P0AFI2 whole entry): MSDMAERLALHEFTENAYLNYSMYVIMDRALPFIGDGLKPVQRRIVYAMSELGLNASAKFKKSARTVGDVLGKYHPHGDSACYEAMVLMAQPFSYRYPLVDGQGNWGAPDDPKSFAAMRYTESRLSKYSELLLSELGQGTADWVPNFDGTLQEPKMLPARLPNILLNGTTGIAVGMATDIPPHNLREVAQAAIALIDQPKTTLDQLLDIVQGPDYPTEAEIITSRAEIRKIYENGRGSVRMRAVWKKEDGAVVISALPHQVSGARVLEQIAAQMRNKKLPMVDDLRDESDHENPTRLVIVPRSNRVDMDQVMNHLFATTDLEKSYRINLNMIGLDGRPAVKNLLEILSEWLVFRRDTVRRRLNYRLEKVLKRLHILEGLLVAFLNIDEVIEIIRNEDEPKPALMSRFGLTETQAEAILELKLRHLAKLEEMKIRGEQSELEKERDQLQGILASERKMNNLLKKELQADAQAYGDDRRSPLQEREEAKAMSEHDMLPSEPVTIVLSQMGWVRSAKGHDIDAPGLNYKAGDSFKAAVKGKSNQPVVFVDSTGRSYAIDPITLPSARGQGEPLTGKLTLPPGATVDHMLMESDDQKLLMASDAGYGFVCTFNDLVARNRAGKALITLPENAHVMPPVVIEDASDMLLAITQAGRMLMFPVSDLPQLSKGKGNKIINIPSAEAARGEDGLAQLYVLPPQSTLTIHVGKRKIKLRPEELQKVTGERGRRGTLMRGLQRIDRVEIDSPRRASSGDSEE

Q: Which “MIC E. coli (ATCC 25922)” value [1] does the source give for `COc1ccc2nccc(OCC3CCC(NCc4ccc(Br)cc4)CC3)c2n1` (stereo not drawn) [Compound 2] here?
A: The value was 64 µg/mL (≈ 140 µM).

Q: What about the “MIC MRSA(QA-12.1)” value [2] of the same compound?
A: The value was 0.25 µg/mL (≈ 0.548 µM).

Q: And the IC50 [3]?
A: The IC50 was over 100000 nM.

Q: What about the IC50 [4] of the same compound?
A: The IC50 was 4800 ± 774 nM.

Q: What about the “MIC E. coli ESBL QA-11.3” value [5] of the same compound?
A: The value was 128 µg/mL (≈ 280 µM).

Q: What about the IC50 [6] of the same compound?
A: Its IC50 is 372 ± 2 nM.

Q: And the “MIC MRSA (QA-11.2)” value [7]?
A: The value was 0.5 µg/mL (≈ 1.1 µM).

Q: And the “MIC K. pneumoniae” value [8]?
A: Its value is 128 µg/mL (≈ 280 µM).

Q: What about the “Human TopoIIα (% RA at 100 µM)” value [9] of the same compound?
A: Its value is 106 ± 3%.

Q: And the “MIC VRE” value [10]?
A: The value was 1 µg/mL (≈ 2.19 µM).

Q: What about the “MIC E. coli D22” value [11] of the same compound?
A: The value was 8 µg/mL (≈ 17.5 µM).

Q: What about the “MIC MRSA (QA-11.7)” value [12] of the same compound?
A: The value was 0.25 µg/mL (≈ 0.548 µM).

Q: And the “MIC E. faecalis RDK 057” value [13]?
A: Its value is 1 µg/mL (≈ 2.19 µM).

Q: What about the “MIC E. coli N43 (CGSC# 5583)” value [14] of the same compound?
A: The value was 1 µg/mL (≈ 2.19 µM).

Q: What about the “MIC S. aureus (ATCC 29213)” value [15] of the same compound?
A: The value was 0.125 µg/mL (≈ 0.274 µM).

Q: What about the “MIC A. baumannii” value [16] of the same compound?
A: The value was 128 µg/mL (≈ 280 µM).

Q: And the IC50 [17]?
A: Its IC50 is 495 ± 184 nM.

Q: And the “MIC P. aeruginosa RDK 184” value [18]?
A: The value was 32 µg/mL (≈ 70.1 µM).
